Primed or numbered codes have the meaning given here. 5‑FAM = 5-FAM fluorescein label; Npys′ = not defined here
What was measured:
MRC5 cells = assay: Live-cell fluorescence microscopy of cell uptake and nuclear labeling by CPP-NLS-FAM fusion peptides; assay type: cell-based, human
Text: (§1) A CPP-cargo construct (comprising a cell-penetrating moiety and a nuclear targeting moiety) was synthesized and conjugated via reactive 3-nitro-2-pyridinesulfenyl cysteine residues, and then purified by HPLC. When exogenously supplemented into cell staining media, these peptide fusions are designed to penetrate living cells and cleave into two subunits within the reducing environment of cell cytoplasm, thereby releasing a FITC-NLS peptide that is actively trafficked into the cell nucleus. Thus, the fusion peptide is convenient for discriminating nuclei by live-cell microscopy.
(§2) Live human MRC5 cells and mammalian CHO cells were incubated with fusion proteins as depicted in the flow chart in FIG. 3, steps 1 through 9. […] The FITC-NLS/pVEC fusion was constructed by independently synthesizing a FITC-NLS-Npys peptide and a modified pVEC sequence containing a terminal cysteine residue: […]

live cells = assay: Live-cell fluorescence microscopy of cell uptake and nuclear labeling, cell type not given (FIG. 4, 6, 7, 9); assay type: cell-based
Text: as §1, with “nucleus.” for “nucleus. Thus, the fusion peptide is convenient for discriminating nuclei by live-cell microscopy.”

CHO cells = assay: Live-cell fluorescence microscopy of cell uptake and nuclear labeling by CPP-NLS-FAM fusion peptides; assay type: cell-based; details: mammalian CHO cells, compared with other tested cell-penetrating sequences, FIG. 4
Text: as §1, §2

[1] = in the presence of excess monovalent pVEC (~132-156 μg/well), FIG. 7

Substance	cell-uptake efficiency and nuclear labeling (MRC5 cells; live human MRC5 cells, compared with other tested cell-penetrating sequences, FIG. 4)	effect of monovalent pVEC on cellular uptake (MRC5 cells; monovalent pVEC ~44 μg/well, MRC5 cells, FIG. 8)	cell uptake and nuclear targeting (live cells; [1])	reduction in fusion peptide needed for equal or better cell uptake and nuclear labeling (live cells; [1])	delivery of the NLS-FAM cargo moiety into cells (live cells; various cell types, FIG. 4 legend)	cell-uptake efficiency and nuclear labeling (CHO cells)	effect of monovalent pVEC on cell uptake (live cells; higher amounts of monovalent pVEC (~132 μg/well), FIG. 9)
5-FAM-GGPKKKRKVGGCCGGKSHAHAQKRIRRRLIILL (not fully specified; 5-FAM; disulfide-linked) [FAM-NLS-C-C-pVEC, disulfide-linked fusion of Fluorescein-NLS-Npys peptide and modified pVEC peptide]	highest	enhanced	enhanced	at least 8 fold	high efficiency	highest	–
5-FAM-GGPKKKRKVGGC(N-Pys)-OH ({5‑FAM}-GGPKKKRKVGGC(Npys′)-OH) [FITC-NLS-Npys]	–	–	–	–	–	–	enhanced cell uptake
